Assay results from ChEMBL document CHEMBL1140568, “Trisubstituted pyrimidines as transient receptor potential vanilloid 1 (TRPV1) antagonists with improved solubility” (Bioorg Med Chem Lett, 2007).
In brackets after ≈: the same amount, converted by molar mass.

Assays:
[1] = target: T1, Transient receptor potential cation channel subfamily V member 1 (Rattus norvegicus, UniProt O35433); experiment: Antagonist activity at rat TRPV1 expressed in CHO cells assessed inhibition of acid induced calcium influx; type: functional, cell-based
[2] = Aqueous solubility in PBS at pH 7; type: physicochemical
[3] = Aqueous solubility in 0.01N HCl; type: physicochemical
[4] = target: T1, Transient receptor potential cation channel subfamily V member 1; experiment: Antagonist activity at rat TRPV1 expressed in CHO cells assessed inhibition of capsaicin induced calcium influx; type: functional, cell-based
[5] = Aqueous solubility in fasted-state stimulated intestinal fluid at pH 6.8; type: physicochemical; conditions: fasted-state simulated intestinal fluid
[6] = Half life in Sprague-Dawley rat at 1 mg/kg, iv; type: ADME, organism-based; set-up: dose 1 mg/kg, route intravenous; conditions: in vivo
[7] = Clearance in Sprague-Dawley rat at 1 mg/kg, iv; type: ADME, organism-based; set-up: dose 1 mg/kg, route intravenous; conditions: in vivo
[8] = Volume of distribution at steady state in Sprague-Dawley rat at 1 mg/kg, iv; type: ADME, organism-based; set-up: dose 1 mg/kg, route intravenous; conditions: in vivo, read-out: Vdss
[9] = AUC (0 to infinity) in Sprague-Dawley rat at 1 mg/kg, iv; type: ADME, organism-based; set-up: time infinity, dose 1 mg/kg, route intravenous; conditions: plasma
[10] = Cmax in Sprague-Dawley rat at 5 mg/kg, po; type: ADME, organism-based; set-up: dose 5 mg/kg, route oral; conditions: in vivo
[11] = Oral bioavailability in Sprague-Dawley rat at 5 mg/kg; type: ADME, organism-based; conditions: in vivo
[12] = AUC (0 to infinity) in Sprague-Dawley rat at 5 mg/kg, po; type: ADME, organism-based; set-up: time infinity, dose 5 mg/kg, route oral; conditions: plasma

T1 sequence (O35433 whole entry): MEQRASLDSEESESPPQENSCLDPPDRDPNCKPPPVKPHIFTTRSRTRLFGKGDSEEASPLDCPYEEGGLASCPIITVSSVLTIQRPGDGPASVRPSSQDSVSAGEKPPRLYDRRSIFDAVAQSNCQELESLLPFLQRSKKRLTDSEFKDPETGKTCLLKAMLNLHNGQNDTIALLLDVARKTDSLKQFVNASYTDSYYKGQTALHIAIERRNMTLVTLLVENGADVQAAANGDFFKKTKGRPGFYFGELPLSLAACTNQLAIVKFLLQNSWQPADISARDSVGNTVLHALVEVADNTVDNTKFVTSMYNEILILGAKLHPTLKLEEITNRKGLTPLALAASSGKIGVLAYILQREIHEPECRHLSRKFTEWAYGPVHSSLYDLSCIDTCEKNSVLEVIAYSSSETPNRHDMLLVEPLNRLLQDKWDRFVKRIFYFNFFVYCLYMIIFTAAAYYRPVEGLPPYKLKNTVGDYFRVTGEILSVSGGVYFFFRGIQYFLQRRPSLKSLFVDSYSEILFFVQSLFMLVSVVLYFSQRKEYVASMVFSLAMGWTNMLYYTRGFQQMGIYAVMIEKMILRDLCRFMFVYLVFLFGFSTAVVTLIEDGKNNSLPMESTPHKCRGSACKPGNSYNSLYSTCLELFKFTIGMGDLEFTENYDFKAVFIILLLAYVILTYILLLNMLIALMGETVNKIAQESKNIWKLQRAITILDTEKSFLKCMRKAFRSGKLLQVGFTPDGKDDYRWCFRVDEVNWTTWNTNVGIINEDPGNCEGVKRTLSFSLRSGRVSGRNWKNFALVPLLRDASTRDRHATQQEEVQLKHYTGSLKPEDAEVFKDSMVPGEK

CC(=O)Nc1nc2c(Oc3cc(-c4ccc(C(F)(F)F)cc4)nc(N4CCC(O)CC4)n3)cccc2s1
IC50 [1]: 90 nM | solubility [2]: 2 µg/mL (≈ 3.78 µM) | solubility [3]: 21 µg/mL (≈ 39.7 µM) | IC50 [4]: 35 nM | solubility [5]: 12 µg/mL (≈ 22.7 µM)

CC(=O)Nc1nc2c(Oc3cc(-c4ccc(C(F)(F)F)cc4)nc(N4CCC(C(=O)O)CC4)n3)cccc2s1
IC50 [1]: 27 nM | solubility [2]: 6 µg/mL (≈ 10.8 µM) | solubility [3]: ≤ 1 µg/mL | IC50 [4]: 410 nM | solubility [5]: 3.4 µg/mL (≈ 6.1 µM)

CC(=O)Nc1nc2c(Oc3cc(-c4ccc(C(F)(F)F)cc4)nc(N4CCCCC4)n3)cccc2s1
IC50 [1]: 1.5 nM | solubility [2]: ≤ 1 µg/mL | solubility [3]: ≤ 1 µg/mL | IC50 [4]: 5.1 nM | solubility [5]: 2.8 µg/mL (≈ 5.45 µM)

CC(=O)Nc1nc2c(Oc3cc(-c4ccc(C(F)(F)F)cc4)nc(C4=CCN(CC(C)C)CC4)n3)cccc2s1
half-life [6]: 2 h | clearance [7]: 67.3 mL/min/kg | Vd [8]: 6.38 L/kg | AUC(0-inf) [9]: 258 ng·h/mL

CC(=O)Nc1nc2c(Oc3cc(-c4ccc(C(F)(F)F)cc4)nc(N)n3)cccc2s1
IC50 [1]: 4.8 nM | solubility [2]: 8.8 µg/mL (≈ 19.8 µM) | solubility [3]: 4.7 µg/mL (≈ 10.6 µM) | IC50 [4]: 12 nM | solubility [5]: 3.5 µg/mL (≈ 7.86 µM)

CC(=O)Nc1nc2c(Oc3cc(-c4ccc(C(F)(F)F)cc4)nc(N4CCOCC4)n3)cccc2s1
IC50 [1]: 1.1 nM | solubility [2]: ≤ 1 µg/mL | solubility [3]: ≤ 1 µg/mL | IC50 [4]: 28 nM | solubility [5]: 1.4 µg/mL (≈ 2.72 µM)

CC(=O)Nc1nc2c(Oc3cc(-c4ccc(C(F)(F)F)cc4)nc(NCC4CCN(CC(C)C)CC4)n3)cccc2s1
IC50 [1]: 64 nM | solubility [2]: 9.4 µg/mL (≈ 15.7 µM) | solubility [3]: ≥ 200 µg/mL | IC50 [4]: 51 nM | solubility [5]: ≥ 200 µg/mL

CC(=O)Nc1nc2c(Oc3cc(-c4ccc(C(F)(F)F)cc4)nc(NCC4CCCCN4CC(C)C)n3)cccc2s1 (configuration not stated)
IC50 [1]: 11 nM | half-life [6]: 2.6 h | solubility [2]: 9.1 µg/mL (≈ 15.2 µM) | solubility [3]: ≥ 200 µg/mL | clearance [7]: 47.7 mL/min/kg | IC50 [4]: 6.1 nM | solubility [5]: 190 µg/mL (≈ 317 µM) | Vd [8]: 8.29 L/kg | AUC(0-inf) [9]: 351 ng·h/mL

CC(=O)Nc1nc2c(Oc3cc(-c4ccc(C(F)(F)F)cc4)nc(NC(C)c4ccccn4)n3)cccc2s1 (configuration not stated)
IC50 [1]: 1.6 nM | half-life [6]: 5.5 h | Cmax [10]: 280 ng/mL | solubility [2]: 6.7 µg/mL (≈ 12.2 µM) | solubility [3]: ≥ 200 µg/mL | clearance [7]: 22.5 mL/min/kg | IC50 [4]: 1.5 nM | bioavailability [11]: 24% | solubility [5]: 150 µg/mL (≈ 272 µM) | Vd [8]: 6.44 L/kg | AUC(0-inf) [12]: 899 ng·h/mL | AUC(0-inf) [9]: 743 ng·h/mL

CC(=O)Nc1nc2c(Oc3cc(-c4ccc(C(F)(F)F)cc4)ncn3)cccc2s1 [AMG-517]
solubility [2]: < 1 µg/mL | solubility [3]: < 1 µg/mL
